According to article PMC12002339 (Proceedings of the National Academy of Sciences of the …, 2025):

Assays:
[1] = biological target: T1, OmpF3 (Escherichia coli, UniProt P02931); assay: native MS of lipid-bound complex; format: binding; conditions: incubated with synthetic lipid; negative ion mode; MlaA-free trimer
T1 sequence (P02931 23-362): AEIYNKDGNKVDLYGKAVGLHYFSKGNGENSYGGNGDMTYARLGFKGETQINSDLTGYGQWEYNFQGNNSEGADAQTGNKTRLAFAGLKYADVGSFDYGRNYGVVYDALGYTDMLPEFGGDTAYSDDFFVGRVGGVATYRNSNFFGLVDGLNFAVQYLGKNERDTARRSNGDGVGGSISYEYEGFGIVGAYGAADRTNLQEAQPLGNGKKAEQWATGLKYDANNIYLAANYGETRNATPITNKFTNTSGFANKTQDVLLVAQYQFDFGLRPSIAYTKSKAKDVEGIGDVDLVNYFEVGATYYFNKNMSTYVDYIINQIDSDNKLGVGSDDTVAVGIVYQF

[2] = biological target: T2, OmpF3–MlaA (Escherichia coli, UniProt P02931+P76506); assay: native MS of lipid-bound complex; format: binding; conditions: incubated with synthetic lipid
T2 sequence (P02931 23-362): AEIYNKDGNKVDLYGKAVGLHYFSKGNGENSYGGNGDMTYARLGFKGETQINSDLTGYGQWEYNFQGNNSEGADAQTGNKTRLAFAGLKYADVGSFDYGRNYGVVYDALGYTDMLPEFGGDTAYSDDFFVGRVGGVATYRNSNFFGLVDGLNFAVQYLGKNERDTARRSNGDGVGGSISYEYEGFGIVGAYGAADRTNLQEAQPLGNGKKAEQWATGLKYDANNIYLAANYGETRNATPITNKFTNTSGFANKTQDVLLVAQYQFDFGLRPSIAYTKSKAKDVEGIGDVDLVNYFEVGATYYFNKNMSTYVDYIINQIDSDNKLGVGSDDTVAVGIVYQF
T2 sequence (P76506 18-251): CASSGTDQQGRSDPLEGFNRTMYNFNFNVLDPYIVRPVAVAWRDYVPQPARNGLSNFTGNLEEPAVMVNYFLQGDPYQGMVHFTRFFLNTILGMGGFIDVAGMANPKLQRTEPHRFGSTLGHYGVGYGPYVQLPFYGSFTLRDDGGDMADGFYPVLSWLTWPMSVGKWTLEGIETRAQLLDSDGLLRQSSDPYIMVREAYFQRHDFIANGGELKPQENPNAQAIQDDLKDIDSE

[3] = biological target: T3, MlaC (Escherichia coli, UniProt P0ADV7); assay: native MS of lipid-loaded MlaC after buffer exchange; format: binding; conditions: 5 µM delipidated MlaC, 25 µM lipid, 5 min, 2xCMC C8E4, 200 mM ammonium acetate pH 7.0, no OmpF3–MlaA
T3 sequence (P0ADV7 22-211): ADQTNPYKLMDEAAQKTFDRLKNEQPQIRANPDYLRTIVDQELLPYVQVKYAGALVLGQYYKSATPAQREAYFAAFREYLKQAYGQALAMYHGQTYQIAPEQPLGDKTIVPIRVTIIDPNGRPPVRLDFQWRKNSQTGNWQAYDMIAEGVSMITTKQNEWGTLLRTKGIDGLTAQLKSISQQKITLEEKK

[4] = biological target: the molecule itself; assay: native MS

CCCCCCCC/C=C\CCCCCCCC(=O)OC[C@H](COP(=O)([O-])OCC[N+](C)(C)C)OC(=O)CCCCCCC/C=C\CCCCCCCC [DOPC]
degree of phospholipid binding [1]: DOPC binds with high affinity to OmpF3 and OmpF3–MlaA | degree of phospholipid binding ([2]; positive and negative ion mode): DOPC binds with high affinity to OmpF3 and OmpF3–MlaA

CCCCCCCCCCCCCCCCCC(=O)OC[C@H](COP(=O)(O)OCC(O)CO)OC(=O)CCCCCCCCCCCCCCCCC (stereo partly shown) [DSPG]
degree of phospholipid binding [2]: Varying the degree of saturation (DSPG) or length (POPG) of the lipid chains

CCCCCCCC/C=C\CCCCCCCC(=O)OC[C@H](COP(=O)(O)OCCN)OC(=O)CCCCCCC/C=C\CCCCCCCC [DOPE]
degree of phospholipid binding ([2]; positive and negative ion mode): DOPE binds with intermediate affinity, and its binding is strongly increased by MlaA

CCCCCCCC/C=C\CCCCCCCC(=O)O[C@H](COC(=O)CCCCCCCCCCCCCCC)COP(=O)(O)OCC(O)CO (stereo partly shown) [POPG]
degree of phospholipid binding [2]: Varying the degree of saturation (DSPG) or length (POPG) of the lipid chains

CCCCCCCC/C=C\CCCCCCCC(=O)OC[C@H](COP(=O)(O)OCC(O)CO)OC(=O)CCCCCCC/C=C\CCCCCCCC (stereo partly shown) [DOPG]
% MlaC loaded [3]: ~ 5%

B1: OmpF (natural protein)
chain: AEIYNKDGNKVDLYGKAVGLHYFSKGNGENSYGGNGDMTYARLGFKGETQINSDLTGYGQWEYNFQGNNSEGADAQTGNKTRLAFAGLKYADVGSFDYGRNYGVVYDALGYTDMLPEFGGDTAYSDDFFVGRVGGVATYRNSNFFGLVDGLNFAVQYLGKNERDTARRSNGDGVGGSISYEYEGFGIVGAYGAADRTNLQEAQPLGNGKKAEQWATGLKYDANNIYLAANYGETRNATPITNKFTNTSGFANKTQDVLLVAQYQFDFGLRPSIAYTKSKAKDVEGIGDVDLVNYFEVGATYYFNKNMSTYVDYIINQIDSDNKLGVGSDDTVAVGIVYQF
stoichiometry N [4]: 3
